Where a name gives a salt, the structure may show the parent alone. Read-outs that look alike come from different tables or passages of the source.
Experiments:
[1] = Half-crystallisation time (t1/2), isothermal DSC; assay type: physicochemical
Protocol: A DSC 2 Perkin Elmer scanning calorimeter was used.
10 mg of the sample of polymer material are placed in a capsule and introduced into the apparatus, wherein the sample is quickly heated to a temperature of 290° C. at which it is maintained during 1 minute.
The molten polymer material is then very quickly cooled by means of liquid air (at a rate of 320° C. per minute) until the crystallisation temperature is reached.
The crystallisation isotherm is registered on a temperature-time graph and the peak appearing on the registered isotherm is taken as the half-crystallisation time (t1/2).

[2] = Degradation constant K (melt degradation performance); assay type: physicochemical; conditions: 1% salt in PET, 2-roll mill 270 °C 5 min; molten state 290 °C
Protocol: The melt degradation performance is a measure of the extent of degradation under molten conditions. A convenient method of quantifying the performance is by measuring the "K value". A method for determining this value in the molten state using an Instron Capillary rheometer is given in a paper by J. Devaux et al in Makromol.
This method is carried out on samples prepared by reacting the salt with the polyester on a 2 roll-mill at a temperature above the melting point of the polyester for 5 minutes and then pressing the product obtained into a 2 mm thick sheet using the same temperature for 3 minutes before cooling to room temperature. The method is described for polyethylene terephthalate but can be readily adapted for other polyesters.
For polyethylene terephthalate the K value in the presence of salt should be less than 60.

[3] = ΔT = Tc(cooling) - Tn(heating), DSC; assay type: physicochemical; conditions: 1% salt in PET, 2-roll mill 270 °C 5 min; 10 °C/minute
Protocol: An alternative method for assessing the effectiveness of nucleation of an additive is to compare the difference between the value of the crystallisation peak on cooling (Tc) with that on heating (Tn) for a composition containing an ionisable salt. The value obtained from this comparison, Tc(cooling) -Tn(heating) is termed ΔT. […] Samples of polyester together with 1% of the salt under test were mixed in a 2-roll mill at 270° C. for 5 minutes. The sample produced was pressed into 2 mm thick sheets at 270° C. for 3 minutes and then cooled to room temperature. 10 mg of the sample was placed in a capsule and rapidly heated to 290° C. After maintaining this temperature for 1 minute the capsule was quenched in water. The crystallisation peak temperatures on heating (Tn) and cooling (Tc) were determined using heating and cooling rates of 10° C./minute on a Perkin Elmer DSC 2 machine.

[4] = Solubility parameter δ of the acid
[5] = Crystallisation peak temperature on heating (Tn), DSC; assay type: physicochemical; conditions: for Tn: 1% salt on PET I.V. 0.73 from solution; for Tn(composition)-Tn(polyester): PET I.V. 0.73 + 1% salt, 2-roll mill 300 °C 2 min, 10 °C/minute; for Tn(comp.)-Tn(PET) (16° C./min): 1% salt deposited from solution on PET chip; for Tn(comp.)-Tn(PET) (16° C./min) / Tn (16° C./min): pressed 280 °C 1 minute, heating rate 16 °C/minute; for Tn (16° C./min): 1% salt deposited from solution on PET
Protocol: In one such DSC technique the crystallisation peak temperature difference, Tn(composition)--Tn(polyester) is determined by measuring the crystallisation peak temperatures on heating for the composition in comparison with the polyester of the composition not containing the ionisable salt. The detailed procedure is as follows. Compositions were prepared from the polyester and the additive by mixing on a 2-roll mill at 300° C. for 2 minutes. The sample was taken from the mill and pressed into a film in a compression moulding machine. 10 mg samples of the composition were placed in a capsule, rapidly heated to 290° C. and maintained at that temperature for 1 minute. The capsule was then dropped into water to quench the polymer and prevent crystallisation. The sample was then placed in a Perkin Elmer DSC 2 machine and heated at a rate of 10° C./minute until reaching a temperature of 290° C. The crystallisation peak temperature observed on this heating cycle is recorded and compared with the value for the polyester not containing the additive.
Samples of polyethylene terephthalate (I.V. =0.73) containing 1% of the salts listed in Table 2 were prepared by compounding at 300° C. on a 2-roll mill for 2 minutes. The samples were evaluated to determine Tn(composition-Tn(polyester), the total number of end groups, the number of carboxylate groups and the number of hydroxyl and carboxyl groups.
The salts listed in Table 3 were deposited from solution on the surface of polyethylene terephthalate chip to give a concentration of 1% by weight of salt. The product was dried under vcuum at 96° C. for 3 hours. The compositions were pressed into film using a temperature of 280° C. for 1 minute. The DSC measurements were made after quenching from the melt to prevent crystallisation and using a heating rate of 16° C./minute.
1% by weight of the sodium salt of saccharin was deposited on the surface of granules of a polyethylene terephthalate homopolymer of I.V. =0.73 by evaporating an aqueous solution of the salt from the granules by drying at 96° C. under vacuum for 3 hours. The granules obtained were compression moulded into film by pressing at 280° C. for 60 second. The film was used for measurements of Tn at a heating rate of 16° C./minute.
The effect of the salts listed in Table 4 was determined by taking granules of a polymer of poly(ethylene terephthalate) homopolymer having an intrinsic viscosity of 0.73 and evaporating a solution of the salt in methanol or water from the surface of the granules by drying at 96° C. under vacuum for 3 hours. The proportions of polymer and solution used were such as to give a concentration of 1% of salt by weight of the final dry composition. The granules obtained were compression-moulded into film at 280° C. for various periods of time. The film was used for measurement of Tn as hereinbefore described.
Two samples of polyethylene terephthalate chip (I.V. =0.73) were coated from solution with 1% of the sodium salt of o-hydroxybenzoic acid and the disodium salt of the same acid respectively. After drying for 3 hours in a vacuum oven at 95° C. films were prepared by pressing the products for 1 minute at 280° C.

End group determination = assay type: physicochemical
Protocol: The numbers of hydroxyl and carboxyl groups were also determined according to the procedure given in this paper.
[…] The samples were evaluated to determine Tn(composition-Tn(polyester), the total number of end groups, the number of carboxylate groups and the number of hydroxyl and carboxyl groups.

[6] = PET I.V. 0.73 + 1% salt, 2-roll mill 300 °C 2 min
[7] = 1% salt deposited from solution on PET chip, pressed 280 °C 1 minute

What does the source list for `O=C(O)c1ccccc1` [sodium benzoate, reference compound]?
t1/2 (sec) 110° C. [1]: 90 s; t1/2 (sec) 120° C. [1]: 45 s; K [2]: 88; ΔT [3]: 99 °C; δ × pKH.sbsb.2O [4]: 55; Tn ([5]; time in press 30 sec at 280 °C): 115.5 °C; Tn ([5]; time in press 60 sec at 280 °C): 117 °C; Tn(composition)-Tn(polyester) [5]: 27 °C; % of carboxylate end group (End group determination; [6]): 9.6%; End Groups --COOH (End group determination; [6]): 44 moles × 10^-6 g^-1; End Groups --OH (End group determination; [6]): 54 moles × 10^-6 g^-1; End Groups Carboxylate (End group determination; [6]): 13 moles × 10^-6 g^-1; End Groups Total from solution I.V. (End group determination; [6]): 136 moles × 10^-6 g^-1

For `CC(C)(C)c1ccc(C(=O)[O-])cc1.[Na+]` [sodium para-tert-butylbenzoate, reference compound], which “t1/2 (sec) 110° C.” value [1] is on record?
The value was 150 s.

And the “t1/2 (sec) 120° C.” value [1]?
Its value is 55 s.

And the K [2]?
Its K is 109.

And the ΔT [3]?
Its ΔT is 92.5 °C.

And the “δ × pKH.sbsb.2O” value ([4]; product for the acid)?
The value was 62.

And the “Tn(composition)-Tn(polyester)” value [5]?
Its value is 19 °C.

And the “% of carboxylate end group” value (End group determination; [6])?
Its value is 2.5%.

And the “End Groups --COOH” value (End group determination; [6])?
Its value is 83 moles × 10^-6 g^-1.

And the “End Groups --OH” value (End group determination; [6])?
The value was 56 moles × 10^-6 g^-1.

What about the “End Groups Carboxylate” value (End group determination; [6]) of the same compound?
Its value is 4 moles × 10^-6 g^-1.

What about the “End Groups Total from solution I.V.” value (End group determination; [6]) of the same compound?
Its value is 157 moles × 10^-6 g^-1.

Which Tn ([5]; time in press 30 sec at 280 °C) does the source give for `O=C([O-])c1ccc(C(=O)[O-])cc1.[Na+].[Na+]` [Disodium terephthalate, reference compound] here?
Its Tn is 141 °C.

What about the Tn ([5]; time in press 60 sec at 280 °C) of the same compound?
The Tn was 140 °C.

And the nucleating activity ([5]; in words)?
Its nucleating activity is “only slight nucleating activity”.

For `O=C([O-])c1cc(O)cc(O)c1.[Na+]` [sodium 3,5-dihydroxybenzoate], which “Tn(composition)-Tn(polyester)” value [5] is on record?
The value was 7 °C.

And the “% of carboxylate end group” value (End group determination; [6])?
The value was 0%.

And the “End Groups Carboxylate” value (End group determination; [6])?
The value was 0 moles × 10^-6 g^-1.

And the “End Groups Total from solution I.V.” value (End group determination; [6])?
Its value is 138 moles × 10^-6 g^-1.

For `O=C(O)c1ccccc1-c1ccccc1` [Sodium salt of 2-biphenylcarboxylic acid], which “Tn(comp.)-Tn(PET) (16° C./min)” value [5] is on record?
Its value is 22 °C.

What about the “Tn (16° C./min)” value [5] of the same compound?
The value was 121 °C.

What about the “End Groups --COOH” value (End group determination; [7]) of the same compound?
Its value is 26 moles × 10^-6 g^-1.

What about the “End Groups --OH” value (End group determination; [7]) of the same compound?
The value was 60 moles × 10^-6 g^-1.

And the “End Groups Total from solution I.V.” value (End group determination; [7])?
The value was 133 moles × 10^-6 g^-1.

With `O=C([O-])c1cccc2c(O)cccc12.[Na+]` [Sodium 5-hydroxy-1-naphthoate] as the compound, how does the “Tn (16° C./min)” value [5] read?
Its value is 132 °C.

Which results are given for `O=C(O)c1ccc(-c2ccccc2)cc1` [Sodium salt of 4-biphenylcarboxylic acid]?
Tn(comp.)-Tn(PET) (16° C./min) [5]: 16 °C; Tn (16° C./min) [5]: 131 °C; End Groups --COOH (End group determination; [7]): 31 moles × 10^-6 g^-1; End Groups --OH (End group determination; [7]): 61 moles × 10^-6 g^-1; End Groups Total from solution I.V. (End group determination; [7]): 107 moles × 10^-6 g^-1

What does the source list for `O=C([O-])Cc1ccccc1.[Na+]` [sodium phenylacetate]?
t1/2 (sec) 110° C. [1]: 55 s; t1/2 (sec) 120° C. [1]: 30 s; K [2]: less than 15

For `COc1ccc2cc(C(=O)[O-])ccc2c1.[Na+]` [Sodium 6-methoxy-2-naphthoate], which “Tn (16° C./min)” value [5] is on record?
Its value is 119 °C.

For `O=C([O-])c1cccc2ccccc12.[Na+]`, which “Tn (16° C./min)” value [5] is on record?
Its value is 111 °C.

Which “Tn (16° C./min)” value [5] does the source give for `O=C([O-])c1ccc2cc(O)ccc2c1.[Na+]` [Sodium 6-hydroxy-2-naphthoate] here?
The value was 116 °C.
